Assay results: patent US10021881B2, “Vaporized administration of pesticides” (priority 2016, dated 2018)

Test: Thermo Gravity Analysis (TGA) degradation temperature
Format: physicochemical
Settings: for temperature at which degradation began (TGA): ramp 10° C. per minute to 300° C.
Description: This example relates to experiments performed to determine the degradation temperatures of pyrimethanil technical compounds and fungicide samples. In the present example, pyrimethanil compounds from China (compound 1) and Europe (compound 2) were analyzed by Thermo Gravity Analysis (TGA). The pyrimethanil samples were run in both air and nitrogen atmospheres on the Q5000 TGA instrument (TA Instruments) equipped in open platinum pans, and using standard TGA test methods as follows: select gas 1 and 2, data storage on, ramp at 10° C. per minute to 300° C., data storage off, and end method. An isothermal method was also performed according to standard methods.

## Cc1cc(C)nc(Nc2ccccc2)n1 [compound 1]
In air
  temperature at which degradation began (TGA): about 120.3 °C
In both air and nitrogen
  temperature at which degradation was complete (TGA): about 200 °C
In nitrogen
  temperature at which degradation began (TGA): about 120.6 °C
